Results reported in ChEMBL document CHEMBL3085720, “Divergent structure-activity relationships of structurally similar acetylcholinesterase inhibitors” (J Med Chem, 2013).

Experiments:
Acetylcholinesterase [1] = target: T1, Acetylcholinesterase (Mus musculus, UniProt P21836); test: Inhibition of mouse recombinant AChE using acetylthiocholine iodide as substrate by Ellman's method
T1 sequence (P21836 whole entry): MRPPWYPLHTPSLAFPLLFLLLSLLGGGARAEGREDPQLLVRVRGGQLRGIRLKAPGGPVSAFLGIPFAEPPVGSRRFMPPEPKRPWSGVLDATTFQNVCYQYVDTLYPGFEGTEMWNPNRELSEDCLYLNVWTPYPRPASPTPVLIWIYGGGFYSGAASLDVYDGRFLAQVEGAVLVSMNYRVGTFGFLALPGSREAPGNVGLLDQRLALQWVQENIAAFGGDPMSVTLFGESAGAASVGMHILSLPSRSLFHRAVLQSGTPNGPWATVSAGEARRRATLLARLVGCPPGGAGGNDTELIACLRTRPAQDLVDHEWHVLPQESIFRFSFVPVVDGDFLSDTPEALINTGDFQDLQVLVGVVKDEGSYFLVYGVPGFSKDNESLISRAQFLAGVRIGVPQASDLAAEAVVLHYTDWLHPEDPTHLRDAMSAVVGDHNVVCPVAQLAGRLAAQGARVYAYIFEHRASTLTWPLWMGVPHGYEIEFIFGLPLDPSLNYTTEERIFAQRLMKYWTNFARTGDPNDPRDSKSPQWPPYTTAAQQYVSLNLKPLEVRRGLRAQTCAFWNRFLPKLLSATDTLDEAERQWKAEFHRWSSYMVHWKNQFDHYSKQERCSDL

Acetylcholinesterase [2] = target: T1, Acetylcholinesterase
Acetylcholinesterase [3] = target: T1, Acetylcholinesterase; test: Binding affinity to mouse AChE by isothermal titration calorimetry
Acetylcholinesterase [4] = target: T1, Acetylcholinesterase; test: Inhibition of wild type mouse AChE expressed in HEK293 cells using ATCh as substrate; assay type: cell-based

Structure (SMILES)	IC50 (Acetylcholinesterase [1]) [µM]	other results
CCN(CC)CCNS(=O)(=O)Cc1ccc(F)cc1	40	–
C/C=C1\[C@H]2C=C(C)C[C@]1(N)c1ccc(=O)[nH]c1C2 [HUPERZINE A]	–	IC50 (Acetylcholinesterase [2]): 0.082 µM
CCN(CC)CCNS(=O)(=O)c1cccc(OC)c1	7	–
CCN(CC)CCNS(=O)(=O)c1cccc2ccccc12	44	–
CCN(CC)CCNS(=O)(=O)c1ccc(OC)cc1	119	–
CCN(CC)CCNS(=O)(=O)c1ccc(C)cc1	135	–
CCN(CC)CCNS(=O)(=O)Cc1ccc(C(F)(F)F)cc1	12	Kd (Acetylcholinesterase [3]): 9.2 µM
CCN(CC)CCNS(=O)(=O)c1cccc(Cl)c1	18	Kd (Acetylcholinesterase [3]): 44.4 µM
CCN(CC)CCNS(=O)(=O)c1cccc(C(F)(F)F)c1	22	Kd (Acetylcholinesterase [3]): 14.8 µM
CCN(CC)CCNS(=O)(=O)Cc1ccccc1	139	–
CC[N+](C)(CC)CCC[n+]1c(-c2ccccc2)c2cc(N)ccc2c2ccc(N)cc21 [PROPIDIUM]	–	IC50 (Acetylcholinesterase [4]): 1.1 µM
CCN(CC)CCNS(=O)(=O)c1ccc2ccccc2c1	> 700	–
CCN(CC)CCNS(=O)(=O)Cc1ccc(Br)cc1	10	–
CCN(CC)CCNS(=O)(=O)c1ccc(Cl)cc1	88	–
CCN(CC)CCNS(=O)(=O)c1ccc([N+](=O)[O-])cc1	95	–
CCN(CC)CCNS(=O)(=O)c1ccc(F)cc1	62	–
CCN(CC)CCNS(=O)(=O)c1ccc(Cl)cc1F	91	–
CCN(CC)CCNS(=O)(=O)Cc1ccc(Cl)c(Cl)c1	7	–
CCN(CC)CCNS(=O)(=O)c1ccccc1F	41	–
CCN(CC)CCNS(=O)(=O)c1ccccc1	31	–
CCN(CC)CCNS(=O)(=O)c1ccc(F)c(F)c1	50	–
CCN(CC)CCNS(=O)(=O)c1ccc(-c2ccc(Cl)cc2)cc1	> 700	–
CCN(CC)CCNS(=O)(=O)Cc1ccc(Cl)cc1	12	Kd (Acetylcholinesterase [3]): 11.1 µM
